Reference: patent publication US9283222B2 (priority 2006, dated 2016)
Where two headings read alike, the source gives them in different places.

Target: Recombinant Human Poly(ADP-Ribose) Polymerase (PARP), PARP-1 (Homo sapiens (Human), UniProt P09874)
Conditions: read-out: PARP-1 (Ki)
[1] = Table 1, text calls the values EC50s

Chain of Recombinant Human Poly(ADP-Ribose) Polymerase (PARP), PARP-1 (P09874 whole entry): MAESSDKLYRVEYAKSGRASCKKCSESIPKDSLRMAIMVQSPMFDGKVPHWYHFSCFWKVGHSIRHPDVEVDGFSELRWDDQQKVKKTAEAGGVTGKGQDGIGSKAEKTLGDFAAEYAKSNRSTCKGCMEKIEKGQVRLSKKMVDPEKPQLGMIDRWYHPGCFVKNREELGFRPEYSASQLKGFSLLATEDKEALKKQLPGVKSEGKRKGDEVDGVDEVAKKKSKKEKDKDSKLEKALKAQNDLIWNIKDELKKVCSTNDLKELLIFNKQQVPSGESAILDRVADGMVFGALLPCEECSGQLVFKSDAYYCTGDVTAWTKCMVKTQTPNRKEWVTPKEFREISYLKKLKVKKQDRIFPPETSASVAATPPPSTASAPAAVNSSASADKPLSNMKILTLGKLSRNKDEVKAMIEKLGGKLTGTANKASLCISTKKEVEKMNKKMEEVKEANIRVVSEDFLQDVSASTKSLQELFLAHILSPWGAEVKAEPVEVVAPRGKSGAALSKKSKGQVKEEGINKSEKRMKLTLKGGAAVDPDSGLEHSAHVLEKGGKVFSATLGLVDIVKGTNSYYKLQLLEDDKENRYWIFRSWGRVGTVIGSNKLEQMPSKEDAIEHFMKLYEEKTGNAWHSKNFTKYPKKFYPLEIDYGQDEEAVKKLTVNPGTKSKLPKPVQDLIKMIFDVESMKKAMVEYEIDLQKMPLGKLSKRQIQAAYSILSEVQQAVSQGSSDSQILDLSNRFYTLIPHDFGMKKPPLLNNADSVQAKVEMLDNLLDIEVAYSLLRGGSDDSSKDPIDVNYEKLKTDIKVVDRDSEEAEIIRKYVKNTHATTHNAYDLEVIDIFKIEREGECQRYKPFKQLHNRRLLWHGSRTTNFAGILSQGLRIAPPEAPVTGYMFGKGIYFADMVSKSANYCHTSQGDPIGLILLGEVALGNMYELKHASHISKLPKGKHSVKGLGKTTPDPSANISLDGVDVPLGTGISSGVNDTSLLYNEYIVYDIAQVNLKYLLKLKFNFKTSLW

| Ki [1] [nM] | SMILES | other results |
| --- | --- | --- |
| 52 | N[C@H]1CCCC[C@@H]1NC(=O)c1cc(Cc2n[nH]c(=O)c3c2NCCC3)ccc1F [Example 740, N-[(1S,2S)-2-aminocyclohexyl]-2-fluoro-5-[(5-oxo-1,2,3,4,5,6-hexahydropyrido[2,3-d]pyridazin-8-yl)methyl]benzamide] |  |
| 1.8 | O=C(OCc1ccccc1)N1CCN(C(=O)c2cc(Cc3n[nH]c(=O)c4c3NCCC4)ccc2F)CC1 [Example 613, benzyl 4-{2-fluoro-5-[(5-oxo-1,2,3,4,5,6-hexahydropyrido[2,3-d]pyridazin-8-yl)methyl]benzoyl}piperazine-1-carboxylate] |  |
| 1.1 | O=C(c1cc(Cc2n[nH]c(=O)c3c2CCCC3)ccc1F)N1CCN(c2ccncc2)CC1 [Example 497, 4-{4-fluoro-3-[(4-pyridin-4-ylpiperazin-1-yl)carbonyl]benzyl}-5,6,7,8-tetrahydrophthalazin-1(2H)-one] |  |
| 56 | COc1ccc(CCNC(=O)c2cccc(Cc3n[nH]c(=O)c4c3CCCC4)c2)c(OC)c1 [Example 403, N-(2-(2,4-dimethoxyphenyl)ethyl)-3-((4-oxo-3,4,5,6,7,8-hexahydrophthalazin-1-yl)methyl)benzamide] |  |
| 4 | O=C(Nc1cccc(Cc2n[nH]c(=O)c3c2CCCC3)c1)c1ccc2ccccc2c1O [Example 236, 1-hydroxy-N-(3-((4-oxo-3,4,5,6,7,8-hexahydrophthalazin-1-yl)methyl)phenyl)-2-naphthamide] |  |
| 1.8 | CCN(CCNC(=O)c1ccccc1)C(=O)c1cc(Cc2n[nH]c(=O)c3c2CCCC3)ccc1F [Example 742, N-[2-(benzoylamino)ethyl]-N-ethyl-2-fluoro-5-[(4-oxo-3,4,5,6,7,8-hexahydrophthalazin-1-yl)methyl]benzamide] |  |
| 2 | O=C(c1cnccn1)N1CCCN(C(=O)c2cc(Cc3n[nH]c(=O)c4c3NCCC4)ccc2F)CC1 [Example 693, 8-(4-fluoro-3-{[4-(pyrazin-2-ylcarbonyl)-1,4-diazepan-1-yl]carbonyl}benzyl)-2,3,4,6-tetrahydropyrido[2,3-d]pyridazin-5(1H)-one] |  |
| 290 | O=C(Nc1ccc(Cc2n[nH]c(=O)c3c2CCCC3)cn1)c1ccccc1 [Example 106, N-(5-((4-oxo-3,4,5,6,7,8-hexahydrophthalazin-1-yl)methyl)pyridin-2-yl)benzamide] |  |
| 185 | Nc1cc(Cc2n[nH]c(=O)c3c2CCCC3)ccc1Cl [Example 278, 4-(3-amino-4-chlorobenzyl)-5,6,7,8-tetrahydrophthalazin-1(2H)-one] |  |
| 2340 | Cc1ccc(C(=O)c2ccccc2C(=O)Nc2cccc(Cc3n[nH]c(=O)c4c3CCCC4)c2)cc1 [Example 244, 2-(4-methylbenzoyl)-N-(3-((4-oxo-3,4,5,6,7,8-hexahydrophthalazin-1-yl)methyl)phenyl)benzamide] |  |
| 4 | O=C(c1cc(Cc2n[nH]c(=O)c3c2NCCC3)ccc1F)N1CCN(C(=O)N2CCCCC2)CC1 [Example 526, 8-(4-fluoro-3-{[4-(piperidin-1-ylcarbonyl)piperazin-1-yl]carbonyl}benzyl)-2,3,4,6-tetrahydropyrido[2,3-d]pyridazin-5(1H)-one] |  |
| 1 | O=C(c1cc(Cc2n[nH]c(=O)c3c2NCCC3)ccc1F)N1CCN(c2ccccc2F)CC1 [Example 549, 8-(4-fluoro-3-{[4-(2-fluorophenyl)piperazin-1-yl]carbonyl}benzyl)-2,3,4,6-tetrahydropyrido[2,3-d]pyridazin-5(1H)-one] |  |
| 1.5 | O=C(c1ccc(O)nc1)N1CCN(C(=O)c2cc(Cc3n[nH]c(=O)c4c3CCCC4)ccc2F)CC1 [Example 735, 4-[4-fluoro-3-({4-[(6-hydroxypyridin-3-yl)carbonyl]piperazin-1-yl}carbonyl)benzyl]-5,6,7,8-tetrahydrophthalazin-1(2H)-one] |  |
| 55 | COc1ccc(OC)c(CCNC(=O)c2cccc(Cc3n[nH]c(=O)c4c3CCCC4)c2)c1 [Example 404, N-(2-(2,5-dimethoxyphenyl)ethyl)-3-((4-oxo-3,4,5,6,7,8-hexahydrophthalazin-1-yl)methyl)benzamide] |  |
| 2 | CC(C)N1CCN(C(=O)c2cc(Cc3n[nH]c(=O)c4c3CCCC4)ccc2F)CC1 [Example 531, 4-{4-fluoro-3-[(4-isopropylpiperazin-1-yl)carbonyl]benzyl}-5,6,7,8-tetrahydrophthalazin-1(2H)-one] |  |
| 0.9 | O=C(c1cc(Cc2n[nH]c(=O)c3c2NCCC3)ccc1F)N1CCN(c2ncncn2)CC1 [Example 632, 8-(4-fluoro-3-{[4-(1,3,5-triazin-2-yl)piperazin-1-yl]carbonyl}benzyl)-2,3,4,6-tetrahydropyrido[2,3-d]pyridazin-5(1H)-one] |  |
| 14 | CN(CCc1ccccn1)C(=O)c1cccc(Cc2n[nH]c(=O)c3c2CCCC3)c1 [Example 426, N-methyl-3-((4-oxo-3,4,5,6,7,8-hexahydrophthalazin-1-yl)methyl)-N-(2-pyridin-2-ylethyl)benzamide] |  |

| Ki [1] [nM] | SMILES | other results |
| --- | --- | --- |
| 1 | O=C(NC1CCN(C(=O)c2cc(Cc3n[nH]c(=O)c4c3NCCC4)ccc2F)CC1)c1ccncc1 [Example 748, N-(1-{2-fluoro-5-[(5-oxo-1,2,3,4,5,6-hexahydropyrido[2,3-d]pyridazin-8-yl)methyl]benzoyl}piperidin-4-yl)isonicotinamide] |  |
| 3 | O=C(c1cccc(Cc2n[nH]c(=O)c3c2CCCC3)c1)N1CCN(C(=O)c2ccno2)CC1 [Example 60, 4-(3-((4-(isoxazol-5-ylcarbonyl)piperazin-1-yl)carbonyl)benzyl)-5,6,7,8-tetrahydrophthalazin-1(2H)-one] |  |
| 0.7 | O=C1C2CC2C(=O)N1c1cc(Cc2n[nH]c(=O)c3c2CCCC3)ccc1F (stereo not drawn) [Example 291, 3-(2-fluoro-5-((4-oxo-3,4,5,6,7,8-hexahydrophthalazin-1-yl)methyl)phenyl)-3-azabicyclo(3.1.0)hexane-2,4-dione] |  |
|  | CC(C)C[C@H](NC(=O)Nc1cc(Cc2n[nH]c(=O)c3c2CCCC3)ccc1F)C(=O)O [Example 626, N-[({2-fluoro-5-[(4-oxo-3,4,5,6,7,8-hexahydrophthalazin-1-yl)methyl]phenyl}amino)carbonyl]leucine] | Ki: 173 nM |
| 9 | O=C(NC1CCN(C(=O)c2cn[nH]c2)CC1)c1cc(Cc2n[nH]c(=O)c3c2NCCC3)ccc1F [Example 734, 2-fluoro-5-[(5-oxo-1,2,3,4,5,6-hexahydropyrido[2,3-d]pyridazin-8-yl)methyl]-N-[1-(1H-pyrazol-4-ylcarbonyl)piperidin-4-yl]benzamide] |  |
| 0.9 | O=C(c1cc(Cc2n[nH]c(=O)c3c2CCCC3)ccc1F)N1CCN(c2cccnc2)CC1 [Example 756, 4-{4-fluoro-3-[(4-pyridin-3-ylpiperazin-1-yl)carbonyl]benzyl}-5,6,7,8-tetrahydrophthalazin-1(2H)-one] |  |
| 70 | O=c1[nH]nc(Cc2cccs2)c2c1CCCC2 [Example 91, 4-(thien-2-ylmethyl)-5,6,7,8-tetrahydrophthalazin-1(2H)-one] |  |
| 0.7 | COc1ccc(S(=O)(=O)N2CCN(C(=O)c3cc(Cc4n[nH]c(=O)c5c4NCCC5)ccc3F)CC2)cc1 [Example 600, 8-[4-fluoro-3-({4-[(4-methoxyphenyl)sulfonyl]piperazin-1-yl}carbonyl)benzyl]-2,3,4,6-tetrahydropyrido[2,3-d]pyridazin-5(1H)-one] |  |
| 0.7 | O=C(c1ccc(Cl)nc1)N1CCN(C(=O)c2cc(Cc3n[nH]c(=O)c4c3NCCC4)ccc2F)CC1 [Example 646] |  |
| 3 | O=C(c1cc(Cc2n[nH]c(=O)c3c2NCCC3)ccc1F)N1CCN(c2cccc(C(F)(F)F)c2)CC1 [Example 602, 8-[4-fluoro-3-({4-[3-(trifluoromethyl)phenyl]piperazin-1-yl}carbonyl)benzyl]-2,3,4,6-tetrahydropyrido[2,3-d]pyridazin-5(1H)-one] |  |
| 16 | Cc1ccc(OCC(=O)Nc2cccc(Cc3n[nH]c(=O)c4c3CCCC4)c2)cc1 [Example 150, 2-(4-methylphenoxy)-N-(3-((4-oxo-3,4,5,6,7,8-hexahydrophthalazin-1-yl)methyl)phenyl)acetamide] |  |
| 2.2 | CN1CCN(C(=O)c2cc(Cc3n[nH]c(=O)c4c3NCCC4)ccc2F)CC1=O [Example 697, 8-{4-fluoro-3-[(4-methyl-3-oxopiperazin-1-yl)carbonyl]benzyl}-2,3,4,6-tetrahydropyrido[2,3-d]pyridazin-5(1H)-one] |  |
| 105 | CCCCN(Cc1ccccc1)C(=O)c1cccc(Cc2n[nH]c(=O)c3c2CCCC3)c1 [Example 422, N-benzyl-N-butyl-3-((4-oxo-3,4,5,6,7,8-hexahydrophthalazin-1-yl)methyl)benzamide] |  |
| 18 | CC(c1ccc(F)c(N2CCCC2=O)c1)c1n[nH]c(=O)c2c1CCCC2 (stereo not drawn) [Example 413, 4-(1-(4-fluoro-3-(2-oxopyrrolidin-1-yl)phenyl)ethyl)-5,6,7,8-tetrahydrophthalazin-1(2H)-one] |  |
|  | O=C1CCCN1c1cc(-c2n[nH]c(=O)c3c2CCCC3)ccc1F [drawing 8] | Ki (Table 2, A2 is C1-alkyl versus no A2 (bond)): 191 nM |
| 165 | CN(CC1CCCCN1C)C(=O)c1cccc(Cc2n[nH]c(=O)c3c2CCCC3)c1 (stereo not drawn) [Example 78, N-methyl-N-((1-methylpiperidin-2-yl)methyl)-3-((4-oxo-3,4,5,6,7,8-hexahydrophthalazin-1-yl)methyl)benzamide] |  |

| SMILES | Ki [1] [nM] | other results |
| --- | --- | --- |
| O=C(c1cccc(Cc2n[nH]c(=O)c3c2CCCC3)c1)N1CCC(O)CC1 [Example 428, 4-(3-((4-hydroxypiperidin-1-yl)carbonyl)benzyl)-5,6,7,8-tetrahydrophthalazin-1(2H)-one] | 5 |  |
| O=C(c1cccc(Cc2n[nH]c(=O)c3c2CCCC3)c1)N1CCN(c2ncccn2)CC1 [Example 442, 4-(3-((4-pyrimidin-2-ylpiperazin-1-yl)carbonyl)benzyl)-5,6,7,8-tetrahydrophthalazin-1(2H)-one] | 0.8 |  |
| O=C(c1cccc(Cc2n[nH]c(=O)c3c2CCCC3)c1)N1CCN(c2ccc(F)cc2)CC1 [Example 445, 4-(3-((4-(4-fluorophenyl)piperazin-1-yl)carbonyl)benzyl)-5,6,7,8-tetrahydrophthalazin-1(2H)-one] | 6 |  |
